In brackets after ≈: the same amount, converted by molar mass.
Key:
PC-12 = assay: Cytotoxicity against rat PC12 cells assessed as growth inhibition after 72 hrs by MTT assay; format: functional; settings: PC-12, 72 h
HCT-116 = assay: Cytotoxicity against human HCT116 cells assessed as growth inhibition after 72 hrs by MTT assay; format: functional; settings: HCT-116, 72 h

Row | SMILES | GI50 (PC-12) [µg/mL] | GI50 (HCT-116) [µg/mL]
1 | COc1ccc([C@@H]2CC(=O)c3c(cc(OC)c(OC)c3O)O2)cc1O | 2.27 (≈ 6.55 µM) | 2.87 (≈ 8.29 µM)
2 | COc1ccc(-c2oc3cc(OC)c(OC)c(O)c3c(=O)c2OC)cc1OC [ARTEMETIN] | 2.27 (≈ 5.84 µM) | 2.2 (≈ 5.66 µM)
3 | CC(=O)O[C@@H]1C[C@@H](C)[C@]2(CCC(=O)O2)[C@@]2(C)CCCC(C)(C)[C@H]12 | > 5 | > 5
4 | CC(=O)O[C@@H]1C[C@@H](C)[C@](O)(CCC2=CC(=O)OC2)[C@@]2(C)CCCC(C)(C)[C@H]12 [VITEXILACTONE] | > 5 | > 5
5 | CO[C@H]1C[C@@]2(CC[C@@]3(O2)[C@H](C)C[C@@H](OC(C)=O)[C@H]2C(C)(C)CCC[C@@]23C)[C@H](OC)O1 (relative stereo) | > 5 | > 5
6 | COc1ccc(-c2oc3cc(OC)c(OC)c(O)c3c(=O)c2OC)cc1O [CASTICIN] | 0.114 (≈ 0.305 µM) | 0.119 (≈ 0.318 µM)
